Measured values published in patent publication US8753680B2, “Capsule for the prevention of cardiovascular diseases” (Ferrer Internacional S.A., priority 2008, dated 2014).

How the values were obtained:
[1] = Degradation of acetylsalicylic acid by moisture; assay type: physicochemical; conditions: found in the course of the investigation
Text: Subsequent acetylsalicylic acid sublimation occurs on the surface of ACE inhibitor tablets thus inducing its chemical degradation. A partially hydrolysed polyvinyl alcohol coating film (Opadry AMB™, Colorcon) has been found useful for protecting both acetylsalicylic acid and the ACE inhibitor tablets because of its moisture barrier properties. HMG-CoA reductase inhibitor tablets in the present invention may be coated with a coloured film, such as a hydroxypropylmethyl cellulose comprising film (Opadry Orange™, Colorcon) to hide darkened appearance. Opadry AMB coatings also may comprise one or more than one pigment.

[2] = general statement, no test described; cited from earlier work

Structure (SMILES) | Degradation due to moisture [1] | Solubility in water [2]
CC(=O)Oc1ccccc1C(=O)O [acetylsalicylic acid] | degrades to salicylic acid due to moisture | –
NCCCC[C@H](N[C@@H](CCc1ccccc1)C(=O)O)C(=O)N1CCC[C@H]1C(=O)O [lisinopril, 1-[N^2-[(S)-1-carboxy-3-phenylpropyl]-L-lysyl]-L-proline] | – | one of the most soluble in water
CCC[C@H](N[C@@H](C)C(=O)N1[C@H](C(=O)O)C[C@@H]2CCCC[C@@H]21)C(=O)OCC [perindopril, 1-ethylic ester of (2S,3aS,7aS)-1-[(S)-N-[(S)-1-carboxybutyl]alanyl]hexahydro-2-indolinecarboxylic acid] | – | freely soluble in water
